Article PMC3427755 (Organic & biomolecular chemistry, 2012)
Entries after “also recorded” stand apart in the source; their conditions may differ. Like-named read-outs stand apart in the source and are kept apart here.

How the values were obtained:
B-Raf^V600E = B-Raf^V600E (Homo sapiens, UniProt P15056, V600E); assay: In vitro B-Raf kinase assay; type: biochemical; details: for Inhibition rate B-Raf^V600E: [I]=1μM
B-Raf^WT = B-Raf^WT (Homo sapiens, UniProt P15056); assay: In vitro B-Raf kinase assay; type: biochemical; details: for inhibition at 2 µM: read-out: Inhibition rate (%) B-Raf; for Inhibition rate (%) B-Raf: 2μM of compound; for Inhibition rate B-Raf: [I]=1μM
Chain of B-Raf^WT (P15056 433-726): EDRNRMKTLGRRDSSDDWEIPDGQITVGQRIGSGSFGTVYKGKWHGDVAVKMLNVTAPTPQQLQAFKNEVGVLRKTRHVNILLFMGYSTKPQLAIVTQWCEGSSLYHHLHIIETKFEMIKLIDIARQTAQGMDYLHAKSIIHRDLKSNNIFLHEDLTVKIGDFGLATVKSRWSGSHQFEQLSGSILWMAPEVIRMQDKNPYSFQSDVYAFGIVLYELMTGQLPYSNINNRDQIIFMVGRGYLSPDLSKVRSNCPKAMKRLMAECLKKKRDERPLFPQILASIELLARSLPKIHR

[1] = system: A375 (B-Raf^V600E) malignant melanoma cells; assay: Anti-proliferation activity, A375 melanoma cells; type: cell-based, human; details: for inhibition at 10 µM: Homo sapiens, A-375, read-out: Tumor growth inhibition rate A375(B-Raf^V600E); for Tumor growth inhibition rate A375(B-Raf^V600E): [I]=10μM
[2] = system: SW620 (B-Raf^WT) human colonic carcinoma cells; assay: Anti-proliferation activity, SW620 cells; type: cell-based; details: SW-620, read-out: Tumor growth inhibition rate SW620 (B-Raf)
[3] = read-out: Inhibition rate (%) B-Raf^V600E, 0.5μM of compound
[4] = read-out: Inhibition rate (%) B-Raf^V600E, 2μM of compound
[5] = read-out: Inhibition rate (%) B-Raf^V600E

Chain of B-Raf^V600E (P15056 433-726 V600E): as the sequence (P15056 433-726) above, with V168E counted along it

O=C1C(=Cc2ccc(-c3ccccc3[N+](=O)[O-])o2)Cc2ccccc21 [Compound 16a, 2-[5-(2-nitro-phenyl)-furan-2-ylmethylene]-indan-1-one]
inhibition at 0.5 µM (B-Raf^V600E; [3]): 47%
inhibition at 2 µM (B-Raf^V600E; [4]): > 50%
inhibition at 2 µM (B-Raf^WT): 11%
inhibition at 10 µM [1]: 16.5%

O=C1C(=Cc2ccc(-c3cccc(C(F)(F)F)c3)o2)Cc2ccccc21 [Compound 16b, 2-[5-(3-trifluomethyl-phenyl)-furan-2-ylmethylene]-indan-1-one]
Inhibition rate (%) B-Raf^V600E (B-Raf^V600E; 2μM of compound): 22% n.d.

O=C1C(=Cc2ccc(-c3cccc(C(F)(F)F)c3)o2)Cc2cc(Cl)ccc21 [Compound 16c, 2-[5-(3-trifluomethyl-phenyl)-furan-2-ylmethylene]-5-chloro-indan-1-one]
Inhibition rate (%) B-Raf^V600E (B-Raf^V600E; 0.5μM of compound): 42%
Tumor growth inhibition rate A375(B-Raf^V600E) [1]: 3.2

O=C1C(=Cc2ccc(-c3ccc([N+](=O)[O-])cc3)o2)Cc2ccccc21 [Compound 16d, 2-[5-(4-nitro-phenyl)-furan-2-ylmethylene]-indan-1-one]
inhibition at 2 µM (B-Raf^V600E; [4]): 34%

O=C1C(=Cc2ccc(-c3ccc(Cl)cc3)o2)Cc2ccccc21 [Compound 16e, 2-[5-(4-chloro-phenyl)-furan-2-ylmethylene]-indan-1-one]
inhibition at 0.5 µM (B-Raf^V600E; [3]): 41%
inhibition at 2 µM (B-Raf^V600E; [4]): > 50%
inhibition at 10 µM [1]: 5.2%

O=C1C(=Cc2ccc(-c3ccc(Br)cc3)o2)Cc2ccccc21 [Compound 16f, 2-[5-(4-bromo-phenyl)-furan-2-ylmethylene]-indan-1-one]
inhibition at 2 µM (B-Raf^V600E; [4]): 42%

O=C1C(=Cc2ccc(-c3cc(C(F)(F)F)ccc3Cl)o2)Cc2ccccc21 [Compound 16g, 2-[5-(2-chloro-5-trifluomethyl)-furan-2-ylmethylene]-indan-1-one]
Inhibition rate (%) B-Raf^V600E (B-Raf^V600E; 2μM of compound): 44% n.d.

O=C1Nc2ccccc2C1=Cc1ccc(-c2cccc(C(F)(F)F)c2)o1 [Compound 17a, 3-[5-(3-trifluomethyl-phenyl)-furan-2-ylmethylene]-1,3-dihydro-indol-2-one]
Inhibition rate (%) B-Raf^V600E (B-Raf^V600E; 2μM of compound): 34% n.d.

O=C1Nc2cc(Cl)ccc2C1=Cc1ccc(-c2cccc(C(F)(F)F)c2)o1 [Compound 17b, 3-[5-(3-trifluomethyl-phenyl)-furan-2-ylmethylene]-6-chloro-1,3-dihydro-indol-2-one]
Inhibition rate (%) B-Raf^V600E (B-Raf^V600E; 2μM of compound): 38% n.d.

O=C1Nc2ccc(Cl)cc2C1=Cc1ccc(-c2cccc(C(F)(F)F)c2)o1 [Compound 17c, 3-[5-(3-trifluomethyl-phenyl)-furan-2-ylmethylene]-5-chloro-1,3-dihydro-indol-2-one]
Inhibition rate (%) B-Raf^V600E (B-Raf^V600E; 2μM of compound): 23% n.d.
Inhibition rate (%) B-Raf (B-Raf^WT): 17% n.d.

O=C1Nc2ccccc2C1=Cc1ccc(-c2cc(C(F)(F)F)ccc2Cl)o1 [Compound 17d, 3-[5-(2-chloro-5-trifluomethyl)-furan-2-ylmethylene]-1,3-dihydro-indol-2-one]
Inhibition rate (%) B-Raf^V600E (B-Raf^V600E; 2μM of compound): 23% n.d.

O=C1Nc2ccc(Cl)cc2C1=Cc1ccc(-c2cc(C(F)(F)F)ccc2Cl)o1 [Compound 17e, 3-[5-(2-chloro-5-trifluomethyl)-furan-2-ylmethylene]-5-chloro-1,3-dihydro-indol-2-one]
Inhibition rate (%) B-Raf^V600E (B-Raf^V600E; 2μM of compound): 34% n.d.

O=C1Nc2cc(Cl)ccc2C1=Cc1ccc(-c2cc(C(F)(F)F)ccc2Cl)o1 [Compound 17f, 3-[5-(2-chloro-5-trifluomethyl)-furan-2-ylmethylene]-6-chloro-1,3-dihydro-indol-2-one]
Inhibition rate (%) B-Raf^V600E (B-Raf^V600E; 2μM of compound): 34% n.d.

O=C1NC(=O)C(=Cc2ccc(-c3ccccc3[N+](=O)[O-])o2)S1 [Compound 19a, 5-[5-(2-nitro-phenyl)-furan-2ylmethylene]-thiazolidine-2,4-dione]
inhibition at 2 µM (B-Raf^V600E; [4]): 7%

COc1cccc(-c2ccc(C=C3SC(=O)NC3=O)o2)c1 [Compound 19b, 5-[5-(3-methoxy-phenyl)-furan-2ylmethylene]-thiazolidine-2,4-dione]
inhibition at 2 µM (B-Raf^V600E; [4]): 34%

O=C1NC(=O)C(=Cc2ccc(-c3ccc([N+](=O)[O-])cc3)o2)S1 [Compound 19c, 5-[5-(4-nitro-phenyl)-furan-2ylmethylene]-thiazolidine-2,4-dione]
inhibition at 2 µM (B-Raf^V600E; [4]): 48%

Cc1ccc(-c2ccc(C=C3SC(=O)NC3=O)o2)cc1 [Compound 19g, 5-[5-(4-methyl-phenyl)-furan-2ylmethylene]-thiazolidine-2,4-dione]
inhibition at 2 µM (B-Raf^V600E; [4]): 41%

COc1ccc(-c2ccc(C=C3SC(=O)NC3=O)o2)cc1 [Compound 19h, 5-[5-(4-methoxy-phenyl)-furan-2ylmethylene]-thiazolidine-2,4-dione]
inhibition at 2 µM (B-Raf^V600E; [4]): 41%
inhibition at 2 µM (B-Raf^WT): 3%

CC(C)(C)c1ccc(-c2ccc(C=C3SC(=O)NC3=O)o2)cc1 [Compound 19i, 5-[5-(4-tert-butyl-phenyl)-furan-2ylmethylene]-thiazolidine-2,4-dione]
inhibition at 2 µM (B-Raf^V600E; [4]): 34%
inhibition at 2 µM (B-Raf^WT): 17%

O=C1NC(=O)C(=Cc2ccc(-c3ccc4ccccc4c3)o2)S1 [Compound 19j, 5-[5-(2-naphthyl)-furan-2ylmethylene]-thiazolidine-2,4-dione]
inhibition at 2 µM (B-Raf^V600E; [4]): 51%

O=C1NC(=O)C(=Cc2ccc(-c3cc(C(F)(F)F)ccc3Cl)o2)S1 [Compound 19k, 5-[5-(2-chloro-5-trifluomethyl)-furan-2ylmethylene]-thiazolidine-2,4-dione]
Inhibition rate (%) B-Raf^V600E (B-Raf^V600E; 2μM of compound): 37% n.d.
Inhibition rate (%) B-Raf (B-Raf^WT): 18% n.d.

O=C1NC(=S)NC(=O)C1=Cc1ccc(-c2ccccc2[N+](=O)[O-])o1 [Compound 22a, 5-[5-(2-nitro-phenyl)-furan-2ylmethylene]-2-thioxo-dihydro-pyrimidine-4,6-dione]
inhibition at 0.5 µM (B-Raf^V600E; [5]): 48%
inhibition at 2 µM (B-Raf^V600E; [5]): 61%
inhibition at 2 µM (B-Raf^WT): 38%

COc1cccc(-c2ccc(C=C3C(=O)NC(=S)NC3=O)o2)c1 [Compound 22b, 5-[5-(3-methoxy-phenyl)-furan-2ylmethylene]-2-thioxo-dihydro-pyrimidine-4,6-dione]
inhibition at 0.5 µM (B-Raf^V600E; [5]): 34%
inhibition at 2 µM (B-Raf^V600E; [5]): 63%
inhibition at 2 µM (B-Raf^WT): 6%
inhibition at 10 µM [1]: 26.2%

O=C1NC(=S)NC(=O)C1=Cc1ccc(-c2ccc([N+](=O)[O-])cc2)o1 [Compound 22c, 5-[5-(4-nitro-phenyl)-furan-2ylmethylene]-2-thioxo-dihydro-pyrimidine-4,6-dione]
inhibition at 2 µM (B-Raf^V600E; [5]): 59%
inhibition at 2 µM (B-Raf^WT): 55%
inhibition at 10 µM [1]: 46.3%

O=C1NC(=S)NC(=O)C1=Cc1ccc(-c2ccc(Cl)cc2)o1 [Compound 22e, 5-[5-(4-chloro-phenyl)-furan-2ylmethylene]-2-thioxo-dihydro-pyrimidine-4,6-dione]
inhibition at 0.5 µM (B-Raf^V600E; [5]): 33%
inhibition at 2 µM (B-Raf^V600E; [5]): 69%
inhibition at 2 µM (B-Raf^WT): 15%
inhibition at 10 µM [1]: 82.9%
Tumor growth inhibition rate A375(B-Raf^V600E) [1]: potent growth inhibition activity
inhibition at 10 µM [2]: 9%

Cc1ccc(-c2ccc(C=C3C(=O)NC(=S)NC3=O)o2)cc1 [Compound 22g, 5-[5-(4-methyl-phenyl)-furan-2ylmethylene]-2-thioxo-dihydro-pyrimidine-4,6-dione]
inhibition at 0.5 µM (B-Raf^V600E; [5]): 50%
inhibition at 2 µM (B-Raf^V600E; [5]): 59%
inhibition at 2 µM (B-Raf^WT): 17%
inhibition at 10 µM [1]: 84%
Tumor growth inhibition rate A375(B-Raf^V600E) ([1]; 10 µM): potent growth inhibition activity; also recorded: virtually complete growth inhibition
inhibition at 10 µM [2]: 3.6%

COc1ccc(-c2ccc(C=C3C(=O)NC(=S)NC3=O)o2)cc1 [Compound 22h, 5-[5-(4-methoxy-phenyl)-furan-2ylmethylene]-2-thioxo-dihydro-pyrimidine-4,6-dione]
IC50 (B-Raf^V600E): 2690 nM
IC50 (B-Raf^WT): 3690 nM
inhibition at 10 µM [1]: 94.4%
Tumor growth inhibition rate A375(B-Raf^V600E) ([1]; 10 µM): potent growth inhibition activity; also recorded: virtually complete growth inhibition
inhibition at 10 µM [2]: 13%

O=C1NC(=S)NC(=O)C1=Cc1ccc(-c2ccc3ccccc3c2)o1 [Compound 22j, 5-[5-(2-naphthyl)-furan-2ylmethylene]-2-thioxo-dihydro-pyrimidine-4,6-dione]
IC50 (B-Raf^V600E): 1070 nM
IC50 (B-Raf^WT): 1930 nM
inhibition at 10 µM [1]: 6.9%

O=C1NC(=S)NC(=O)C1=Cc1ccc(-c2cc(C(F)(F)F)ccc2Cl)o1 [Compound 22k, 5-[5-(2-chloro-5-trifluomethyl)-furan-2ylmethylene]-2-thioxo-dihydro-pyrimidine-4,6-dione]
Tumor growth inhibition rate A375(B-Raf^V600E) [1]: 18.3

O=C1NC(=S)NC(=O)C1=Cc1ccc(-c2cccc(C(F)(F)F)c2)o1 [Compound 22l, 5-[5-(3-trifluomethyl-phenyl)-furan-2ylmethylene]-2-thioxo-dihydro-pyrimidine-4,6-dione]
Inhibition rate B-Raf^V600E (B-Raf^V600E): 45%
Inhibition rate B-Raf (B-Raf^WT): 30%

O=C1NC(=S)NC(=O)C1=Cc1ccc(-c2ccc(Cl)cc2[N+](=O)[O-])o1 [Compound 22n, 5-[5-(2-nitro-4-chloro)-furan-2ylmethylene]-2-thioxo-dihydro-pyrimidine-4,6-dione]
Inhibition rate B-Raf^V600E (B-Raf^V600E): 22%
Inhibition rate B-Raf (B-Raf^WT): 20%

O=C1NC(=S)NC(=O)C1=Cc1ccc(-c2ccc(Cl)cc2C(F)(F)F)o1 [Compound 22o, 5-[5-(2-trifluomethyl-4-chloro)-furan-2ylmethylene]-2-thioxo-dihydro-pyrimidine-4,6-dione]
Inhibition rate B-Raf^V600E (B-Raf^V600E): 49%
Inhibition rate B-Raf (B-Raf^WT): 24%

O=C1NC(=S)NC(=O)C1=Cc1ccc(-c2ccc(Cl)c(C(F)(F)F)c2)o1 [Compound 22p, 5-[5-(3-trifluomethyl-4-chloro)-furan-2ylmethylene]-2-thioxo-dihydro-pyrimidine-4,6-dione]
Inhibition rate B-Raf^V600E (B-Raf^V600E): 48%
Inhibition rate B-Raf (B-Raf^WT): 37%
